Results published in patent publication US11022604B2, “Dock derived compound against laminin receptor (37 LR) and uses thereof” (Purdue Research Foundation, priority 2017, dated 2021).

How the values were obtained:
[1] = system: PC-3 cells; test: Label-free quantitative proteomics and Ingenuity Pathway Analysis; format: cell-based, human; conditions: PC-3, 10 μM, 72 hours
Method: FIG. 7. Volcano Plot of Differentially regulated proteins in response to C3 treatment. PC-3 cells were treated with DMSO or 10 μM C3 for 72 hours and proteins were quantified using label free quantitative mass spectrometry. Proteins were graphed by fold change (Difference) and significance (−Log p) using a false discovery rate of 0.05 and an S0 of 0.1.
FIG. 8 Ingenuity pathway analysis of proteomic data from C3 treatment of PC-3 cells.
(§1) Wound Healing Assay. PC-3 cells were seeded in 6 well plates at 3×10^5 cells per well in complete media until the cells reached confluency. Three horizontal and three vertical scratches were made in the confluent monolayers using a standard 200 μL pipette tip and cellular debris were removed by washing with 1×DPBS three times. 1×RPMI-1640 supplemented with C3 or DMSO was added and cells were incubated for 48 hours as described previously. […] Images were uploaded and analyzed for scratch geometry using the tscratch program (96). First, global thresholding was performed, then individual images were manually inspected for single image threshold adjustment and scratch geometries were quantified. […] The samples were analyzed using the Dionex UltiMate 3000 RSLC Nano System coupled to the Q Exactive™ HF Hybrid Quadrupole-Orbitrap MS (Thermo Scientific). […]

[2] = system: c-MYC binding site luciferase reporter in PC-3 cells; test: c-MYC binding site luciferase reporter assay; format: cell-based; conditions: 24 hours
Method: FIG. 9. Luciferase promoter Assay in PC-3 cells. PC-3 cells were treated with 1, 10, 50 μM C3 or DMSO control for 24 hours after a 24 transfection with Myc-Luc and B-Gal plasmid to normalize for transfection efficiency (n=6, mean±SEM). Relative light units calculated by normalizing Myc-Luc signal to B-gal signal. A one-way ANOVA was used for statistical analysis (P<0.05). The linear trend was also significant (pose test for linear trend, p, 0.05).
as §1

## O=C(c1cc(F)cc2c1OCOC2)N1CCN(C2c3ccccc3-c3ccccc32)CC1 [Compound C3, [4-(9h-fluoren-9-yl)piperazino](6-fluoro-4h-1,3-benzodioxin-8-yl)methanone]
[1]
  ICT1 protein level: 1.9 FC
[2]; PC-3, 50 μM
  reduction of c-myc binding activity (luciferase reporter): 36%
[2]; PC-3, 1 and 10 μM
  effect on c-myc luciferase reporter activity: no significant effect
